{"source": "patent US5547684A", "about": "“Cosmetic composition containing a DNA-sodium salt and methods of making and using the same” (priority 1993, dated 1996)", "key": {"[1]": {"tested_on": "HIV (HIV-IVS and HIV-1 HTLV/IIIB strains)", "experiment": "HIV suppression in vitro (syncitia, viral antigen IFA), CEM-SS and MT-4 cells", "assay_type": "cell-based", "settings": "Table 1; comparison preparation, no ratio", "protocol": "Complexes of DNA-Na with zinc, cobalt, nickel and iron were used for HIV suppression in in vitro systems with various concentrations of the components in the complexes. AZT manufactured by \"Wellcome\" Company was used for comparison purposes. The antiviral activity of the preparation was tested according to the method recommended by WHPO for these purposes. CEM-SS and MT-4 reinoculated human cell lines were used. The cells were cultivated in the concentration of (0.03-0.05)*10^6 cells per 1 ml of RPMI 1640 medium with 10% calf fetal serum, […] of L-glutamine, 100 mcg/ml of gentamicin and grown in the form of a suspension. The vitality of cells was tested by dyeing them with 0.4% solution of threpane blue dye stuff. HIV-IVS and HIV-1 HTLV/IIIB strains were used as the virus sources.\nThe cell suspension was placed into 24 well panels, processed by various doses of preparations and then infected by HIV. The infection multiplicity was 0.01 TCD50 per cell. After that, the cultures were incubated at 37° C. in a 5% CO2 atmosphere and 98% humidity for 5-7 days up to the moment of defining the cytopathic effect of the virus upon the cell culture.\nImmunophermentative analysis was used to define formation of viral antigen."}, "CEM-SS and MT-4 cells": {"tested_on": "CEM-SS and MT-4 cells", "experiment": "Cytotoxicity of preparations, threpane blue vitality of cells", "assay_type": "cell-based, human", "settings": "Table 1; comparison preparation, no ratio", "method": "The antiviral activity of the preparation was tested according to the method recommended by WHPO for these purposes. CEM-SS and MT-4 reinoculated human cell lines were used. The cells were cultivated in the concentration of (0.03-0.05)*10^6 cells per 1 ml of RPMI 1640 medium with 10% calf fetal serum, 300 mg/ml of L-glutamine, 100 mcg/ml of gentamicin and grown in the form of a suspension. The vitality of cells was tested by dyeing them with 0.4% solution of threpane blue dye stuff. HIV-IVS and HIV-1 HTLV/IIIB strains were used as the virus sources."}, "HIV-1 (HTLV-IIIB)": {"tested_on": "HIV-1 (HTLV-IIIB)", "experiment": "Anti-virus activity of AC-series preparations on infected cells (syncitia, p24 antigen)", "assay_type": "cell-based", "protocol": "Antiviral activity of these preparations toward HIV-1 was studied using as the model, cellular cultures infected with HIV-1.\nThe testing of anti-virus activity was conducted using two types of interwoven cellar lines sensitive to infecting by AIDS-virus--the MT-4 cells and Yurkat tat III cells. The cells were harvested in suspension form in a PPMI 1640 medium containing 15% of fetal serum with exposure to the atmosphere characterized by 5% CO2 content, 98% humidity level and 37% C. temperature level. The cells were infected by the HTLV-IIIB culture of AIDS-1 virus in accordance with WHO recommendations for conducting scientific researches on testing pharmaceutical preparations. The methods used for determining anti-virus activity of the tested preparations are recommended for similar purposes by the WHO Reference Laboratory (Belgium) headed by Professor de Clerk who is an internationally recognized leading expert in synthesis and screening chemical preparations for AIDs treatment (I. Antimicrob. Chemoter., 1989, No. 23, Suppl. A 35-46). […]\n(§1) The cells were incubated for 6 days under similar conditions and thereafter their viability was determined as well as formation of virus-induced syncytia and virus antigen (p24) using immunofermental analysis. […] The viable cells were counted using thripane blue dye-stuff in the Goryayev chamber."}, "[2]": {"tested_on": "MT-4 cells and Yurkat tat III cells", "experiment": "Cell viability / toxic effect on cells, AC-series preparations", "assay_type": "cell-based, human", "protocol": "The testing of anti-virus activity was conducted using two types of interwoven cellar lines sensitive to infecting by AIDS-virus--the MT-4 cells and Yurkat tat III cells. The cells were harvested in suspension form in a PPMI 1640 medium containing 15% of fetal serum with exposure to the atmosphere characterized by 5% CO2 content, 98% humidity level and 37% C. temperature level. The cells were infected by the HTLV-IIIB culture of AIDS-1 virus in accordance with WHO recommendations for conducting scientific researches on testing pharmaceutical preparations. The methods used for determining anti-virus activity of the tested preparations are recommended for similar purposes by the WHO Reference Laboratory (Belgium) headed by Professor de Clerk who is an internationally recognized leading expert in synthesis and screening chemical preparations for AIDs treatment (I. Antimicrob. Chemoter., 1989, No. 23, Suppl. A 35-46). The work was done at the Virology Institute of the U.S.S.R. Academy of Medical Sciences on MT-4 human lymphoid cells and on Yurkat tat III cells as indicated above.\nas §1"}, "in vivo": {"experiment": "in vivo", "settings": "mouse, in vivo", "protocol": "(§2) The studies on toxicity of AC-1 and AC-4 and of aziodothymidine were conducted on non-linear white mice weighing 6 to 7 grams, making use of different concentrations of preparations per kg of weight of the animal in the volume of 0.2 ml in hypodermic, intranasal and intraabdominal injections and 0.03 ml in intracerebral injections. The animals were kept under observation for 2 weeks and then LD50 was calculated using Curber method. The lethal dose of the preparation which has caused death of 50% of the animals was considered an LD50 dose. The preparation was used as a sterile solution was a concentration of 0.05%.\n(§3) The animals were kept under observation for 2 weeks and then LD50 was calculated using Curber method. The lethal dose of the preparation which caused death of 50% of the animal was considered the LD50 dose."}, "white mice": {"tested_on": "white mice", "experiment": "in vivo", "settings": "for surviving mice / infected mice: Table 3", "protocol": "as §2, §3"}, "normal cells": {"tested_on": "normal cells", "settings": "cited from earlier work"}, "mice": {"tested_on": "mice", "settings": "10 mg/kg injected intercerebrally; cited from earlier work"}}}
{"smiles": "Cc1cn([C@H]2C[C@H](N=[N+]=[N-])[C@@H](CO)O2)c(=O)[nH]c1=O", "note": "[AZT, azidothymidine]", "values": [{"measurement": "IFA optical density", "setting": "[1]", "result": 0.091}, {"measurement": "IFA viral antigen", "setting": "[1]", "result": 0.1, "unit": "ng/mL"}, {"measurement": "quantity of syncitia, % from the control virus", "setting": "[1]", "result": 8, "unit": "%"}, {"measurement": "cytotoxicity: quantity of cells in ml of cultural liquid", "setting": "CEM-SS and MT-4 cells", "result": "0.61 × 10^8"}, {"measurement": "antigen (p24) content", "setting": "HIV-1 (HTLV-IIIB); 1.0 mcm/ml, virus control 2.0 ng/ml", "result": 1, "unit": "ng/mL"}, {"measurement": "immunofermental activity", "setting": "HIV-1 (HTLV-IIIB); Table 2, virus antigen (p24), 270 mkg/ml, 6th day", "result": 0.1, "unit": "ng/mL"}, {"measurement": "viability at 270 µg/mL", "setting": "[2]; Homo sapiens, MT4, 144 h", "result": 96, "unit": "%"}, {"measurement": "toxicity on the cell level", "setting": "[2]; all the above biologically active concentrations", "result": "nontoxic"}, {"measurement": "LD50 at 336 h", "setting": "in vivo", "result": 10, "unit": "mg/kg"}, {"measurement": "mortality at 336 h", "setting": "in vivo; 10 mg/kg", "result": 50, "unit": "%"}, {"measurement": "surviving mice / infected mice", "setting": "white mice; hypoderm., 5 mg/kg", "result": "6/6"}, {"measurement": "surviving mice / infected mice", "setting": "white mice; hypoderm., 10 mg/kg", "result": "6/6"}, {"measurement": "surviving mice / infected mice", "setting": "white mice; hypoderm., 20 mg/kg", "result": "6/6"}, {"measurement": "surviving mice / infected mice", "setting": "white mice; hypoderm., 35 mg/kg", "result": "6/6"}, {"measurement": "surviving mice / infected mice", "setting": "white mice; hypoderm., 50 mg/kg", "result": "6/6"}, {"measurement": "surviving mice / infected mice", "setting": "white mice; hypoderm., 75 mg/kg", "result": "6/6"}, {"measurement": "surviving mice / infected mice", "setting": "white mice; in/abdom., 5 mg/kg", "result": "6/6"}, {"measurement": "surviving mice / infected mice", "setting": "white mice; in/abdom., 10 mg/kg", "result": "6/6"}, {"measurement": "surviving mice / infected mice", "setting": "white mice; in/abdom., 20 mg/kg", "result": "6/6"}, {"measurement": "surviving mice / infected mice", "setting": "white mice; in/abdom., 35 mg/kg", "result": "6/6"}, {"measurement": "surviving mice / infected mice", "setting": "white mice; in/abdom., 50 mg/kg", "result": "6/6"}, {"measurement": "surviving mice / infected mice", "setting": "white mice; in/abdom., 75 mg/kg", "result": "6/6"}, {"measurement": "surviving mice / infected mice", "setting": "white mice; in/cerebr., 5 mg/kg", "result": "6/6"}, {"measurement": "surviving mice / infected mice", "setting": "white mice; in/cerebr., 10 mg/kg", "result": "6/6"}, {"measurement": "surviving mice / infected mice", "setting": "white mice; in/cerebr., 20 mg/kg", "result": "6/6"}, {"measurement": "surviving mice / infected mice", "setting": "white mice; in/cerebr., 35 mg/kg", "result": "6/6"}, {"measurement": "surviving mice / infected mice", "setting": "white mice; in/cerebr., 50 mg/kg", "result": "6/6"}, {"measurement": "surviving mice / infected mice", "setting": "white mice; in/cerebr., 75 mg/kg", "result": "6/6"}, {"measurement": "surviving mice / infected mice", "setting": "white mice; in/nasal, 5 mg/kg", "result": "6/6"}, {"measurement": "surviving mice / infected mice", "setting": "white mice; in/nasal, 10 mg/kg", "result": "6/6"}, {"measurement": "surviving mice / infected mice", "setting": "white mice; in/nasal, 20 mg/kg", "result": "6/6"}, {"measurement": "surviving mice / infected mice", "setting": "white mice; in/nasal, 35 mg/kg", "result": "6/6"}, {"measurement": "surviving mice / infected mice", "setting": "white mice; in/nasal, 50 mg/kg", "result": "6/6"}, {"measurement": "surviving mice / infected mice", "setting": "white mice; in/nasal, 75 mg/kg", "result": "6/6"}, {"measurement": "toxicity", "setting": "white mice; all injection methods, 5 to 50 mg/kg, except intracerebral 10 to 50 mg/kg", "result": "non-toxic"}, {"measurement": "normal cells killed", "setting": "normal cells; optimal dose", "result": "about 30%"}, {"measurement": "CC50", "setting": "normal cells; read-out: LD50 for cells, cells", "result": "≤ 100", "unit": "mM"}, {"measurement": "death of animals", "setting": "mice", "result": 50, "unit": "%"}]}
